According to PubChem BioAssay AID1259407 (Chemical Carcinogenesis Research Information System (CCRIS), 2018):
The source made the active and inactive calls. How the calls were made is not given here.

Tested on: CCRIS mutagenicity, Ames/micronucleus/aberration tests
Assay: CCRIS mutagenicity studies
Text: The CCRIS database contains chemical records with carcinogenicity, mutagenicity, tumor promotion, and tumor inhibition test results. It was developed by the National Cancer Institute (NCI). Data are derived from studies cited in primary journals, current awareness tools, NCI reports, and other sources. Test results have been reviewed by experts in carcinogenesis and mutagenesis.
CCRIS provides historical information from the years 1985 - 2011. It is no longer updated.
This is an archive assay for CCRIS mutagenicity studies.

[1] = Test System: AMES SALMONELLA TYPHIMURIUM, Strain/Indicator: TA98, Metabolic Activation: NONE, Method: STANDARD PLATE
[2] = Test System: AMES SALMONELLA TYPHIMURIUM, Strain/Indicator: TA100, Metabolic Activation: NONE, Method: STANDARD PLATE
[3] = Test System: AMES SALMONELLA TYPHIMURIUM, Strain/Indicator: TA100, Metabolic Activation: RAT, LIVER, S-9, AROCLOR 1254, Method: STANDARD PLATE
[4] = Test System: AMES SALMONELLA TYPHIMURIUM, Strain/Indicator: TA1535, Metabolic Activation: NONE, Method: STANDARD PLATE
[5] = Test System: AMES SALMONELLA TYPHIMURIUM, Strain/Indicator: TA1537, Metabolic Activation: NONE, Method: STANDARD PLATE
[6] = Test System: AMES SALMONELLA TYPHIMURIUM, Strain/Indicator: TA100, Metabolic Activation: NONE, Method: PREINCUBATION

For CCCCOCC=O, the mutagenic call (Test System: AMES SALMONELLA TYPHIMURIUM, Strain/Indicator: TA97A, Metabolic Activation: NONE, Method: STANDARD PLATE) was “inactive; negative”, the mutagenic call (Test System: AMES SALMONELLA TYPHIMURIUM, Strain/Indicator: TA97A, Metabolic Activation: RAT, LIVER, S-9, AROCLOR 1254, Method: STANDARD PLATE) was “inactive; negative” and the mutagenic call [1] was “inactive; negative”. The mutagenic call (Test System: AMES SALMONELLA TYPHIMURIUM, Strain/Indicator: TA98, Metabolic Activation: RAT, LIVER, S-9, AROCLOR 1254, Method: STANDARD PLATE) was “inactive; negative”, the mutagenic call [2] was “inactive; negative” and the mutagenic call [3] was “inactive; negative”. The mutagenic call (Test System: AMES SALMONELLA TYPHIMURIUM, Strain/Indicator: TA102, Metabolic Activation: NONE, Method: STANDARD PLATE) was “inactive; negative”, the mutagenic call (Test System: AMES SALMONELLA TYPHIMURIUM, Strain/Indicator: TA102, Metabolic Activation: RAT, LIVER, S-9, AROCLOR 1254, Method: STANDARD PLATE) was “inactive; negative” and the mutagenic call (Test System: CHINESE HAMSTER OVARY, Strain/Indicator: CHO-AS52/6-THIOGUANINE, Metabolic Activation: NONE) was “inactive; negative”. For the same molecule, the mutagenic call (Test System: CHINESE HAMSTER V-79, Strain/Indicator: V-79 (HPRT)/6-THIOGUANINE, Metabolic Activation: NONE) was “active; positive”.
O=[N+]([O-])c1c(-c2ccc(Cl)cc2)nc2sccn12 was tested, and the mutagenic call [1] was “active; positive”, the mutagenic call [2] was “inactive; negative” and the mutagenic call [4] was “inactive; negative”. For the same molecule, the mutagenic call [5] was “active; positive” and the mutagenic call (Test System: AMES SALMONELLA TYPHIMURIUM, Strain/Indicator: TA1538, Metabolic Activation: NONE, Method: STANDARD PLATE) was “active; positive”.
For NC(CS)C(=O)O (stereo not given), the mutagenic call (Test System: AMES SALMONELLA TYPHIMURIUM, Strain/Indicator: TA98, Metabolic Activation: RAT LIVER S-9, CHLOROPHENE, Method: STANDARD PLATE (COMPOUND HEATED AT 250 DEGREES CELSIUS FOR 20 MIN)) was “inactive; negative”.
For c1cc2c3c(cccc3c1)C1NC21 (stereo not given), the mutagenic call [1] was “active; positive”, the mutagenic call [2] was “active; positive” and the mutagenic call [5] was “active; positive”.
CC1OC1c1ccc(C#N)cc1 (stereo not given) was tested, and the mutagenic call [6] was “active; positive”.
For COC(=O)[C@@H](C)CN=[N+]=[N-], the mutagenic call (Test System: AMES SALMONELLA TYPHIMURIUM, Strain/Indicator: TA100, Metabolic Activation: RAT, LIVER, S-9, PCB, Method: PREINCUBATION) was “active; positive”.
For CC/C=C/C=C/C=C/C=C/C=C/OCC(O)c1ccccc1 (stereo not given), the mutagenic call [6] was “active; positive”.
With COc1ccc2c(c1OC)C(=O)O[C@@H]2[C@H]1c2c(cc3c(c2OC)OCO3)CCN1C the mutagenic call (End Point: CHROMOSOMAL ABERRATIONS, Test System: HUMAN LYMPHOCYTES, Metabolic Activation: NONE, Method: FISH) was “active; positive (ploidy changes)”, the mutagenic call (End Point: In vivo micronucleus, Test System: Micronucleated, binucleated and multinucleated hepatocytes, Species: Mouse, Strain/Sex: ddY/Male, Route: Intravenous) was “active; positive for micronucleated, binucleated and multinucleated cells when agent adm” and the mutagenic call (End Point: MICRONUCLEUS, Test System: HUMAN LYMPHOCYTES, Metabolic Activation: NONE) was “active; positive (aneuploidy and polyploidy)”.
For Cl/C=C\CCl, the mutagenic call [2] was “active; positive”, the mutagenic call [3] was “active; positive” and the mutagenic call [4] was “active; positive”. For the same molecule, the mutagenic call (Test System: AMES SALMONELLA TYPHIMURIUM, Strain/Indicator: TA1535, Metabolic Activation: RAT, LIVER, S-9, AROCLOR 1254, Method: STANDARD PLATE) was “active; positive”, the mutagenic call (Test System: AMES SALMONELLA TYPHIMURIUM, Strain/Indicator: TA1978, Metabolic Activation: NONE, Method: STANDARD PLATE) was “active; positive” and the mutagenic call (Test System: AMES SALMONELLA TYPHIMURIUM, Strain/Indicator: TA1978, Metabolic Activation: RAT, LIVER, S-9, AROCLOR 1254, Method: STANDARD PLATE) was “active; positive”.
With O=Cc1ccc(CO)o1 the mutagenic call (End Point: In vivo micronucleus, Test System: Peripheral blood normochromatic erythrocytes, Species: Mouse, Strain/Sex: B6C3F1/Female, Route: Oral) was “inactive; negative”, the mutagenic call (End Point: In vivo micronucleus, Test System: Peripheral blood normochromatic erythrocytes, Species: Mouse, Strain/Sex: B6C3F1/Male, Route: Oral) was “inactive; negative” and the mutagenic call [1] was “inactive; negative”. For the same molecule, the mutagenic call (Test System: AMES SALMONELLA TYPHIMURIUM, Strain/Indicator: TA98, Metabolic Activation: S-9, Method: STANDARD PLATE) was “active; positive”, the mutagenic call [2] was “inactive; negative” and the mutagenic call (Test System: AMES SALMONELLA TYPHIMURIUM, Strain/Indicator: TA100, Metabolic Activation: S-9, Method: STANDARD PLATE) was “active; positive”. For the same molecule, the mutagenic call (Test System: AMES SALMONELLA TYPHIMURIUM, Strain/Indicator: TA104, Metabolic Activation: NONE, Method: PREINCUBATION) was “inactive; negative”, the mutagenic call (Test System: Ames Salmonella typhimurium, Strain/Indicator: TA97, Metabolic Activation: Hamster, Liver, S-9, Aroclor 1254 (10 and 30%), Method: Preincubation) was “inactive; negative” and the mutagenic call (Test System: Ames Salmonella typhimurium, Strain/Indicator: TA97, Metabolic Activation: None, Method: Preincubation) was “inactive; negative”. The mutagenic call (Test System: Ames Salmonella typhimurium, Strain/Indicator: TA97, Metabolic Activation: Rat, Liver, S-9, Aroclor 1254 (10 and 30%), Method: Preincubation) was “inactive; negative”, the mutagenic call (Test System: Ames Salmonella typhimurium, Strain/Indicator: TA98, Metabolic Activation: Hamster, Liver, S-9, Aroclor 1254 (10 and 30%), Method: Preincubation) was “inactive; negative” and the mutagenic call (Test System: Ames Salmonella typhimurium, Strain/Indicator: TA98, Metabolic Activation: None, Method: Preincubation) was “inactive; negative”. For the same molecule, the mutagenic call (Test System: Ames Salmonella typhimurium, Strain/Indicator: TA98, Metabolic Activation: Rat, Liver, S-9, Aroclor 1254 (10 and 30%), Method: Preincubation) was “inactive; negative”, the mutagenic call (Test System: Ames Salmonella typhimurium, Strain/Indicator: TA98, Metabolic Activation: Rat, Liver, S-9, Aroclor 1254,10%, Method: Preincubation) was “inactive; negative” and the mutagenic call (Test System: Ames Salmonella typhimurium, Strain/Indicator: TA100, Metabolic Activation: Hamster, Liver, S-9, Aroclor 1254 (10 and 30%), Method: Preincubation) was “inactive; negative”. The mutagenic call (Test System: Ames Salmonella typhimurium, Strain/Indicator: TA100, Metabolic Activation: Rat, Liver, S-9, Aroclor 1254 (10 and 30%), Method: Preincubation) was “inactive; negative”, the mutagenic call (Test System: Ames Salmonella typhimurium, Strain/Indicator: TA100, Metabolic Activation: Rat, Liver, S-9, Aroclor 1254,10%, Method: Preincubation) was “inactive; negative” and the mutagenic call (Test System: Ames Salmonella typhimurium, Strain/Indicator: TA102, Metabolic Activation: Hamster, Liver, S-9, Aroclor 1254 (10 and 30%), Method: Preincubation) was “inactive; negative”. The mutagenic call (Test System: Ames Salmonella typhimurium, Strain/Indicator: TA102, Metabolic Activation: None, Method: Preincubation) was “inactive; negative”, the mutagenic call (Test System: Ames Salmonella typhimurium, Strain/Indicator: TA102, Metabolic Activation: Rat, Liver, S-9, Aroclor 1254 (10 and 30%), Method: Preincubation) was “inactive; negative” and the mutagenic call (Test System: Ames Salmonella typhimurium, Strain/Indicator: TA1535, Metabolic Activation: None, Method: Preincubation) was “inactive; negative”. The mutagenic call (Test System: CHINESE HAMSTER V-79, Strain/Indicator: V-79 (HPRT)/6-THIOGUANINE, Metabolic Activation: NONE, Method: STANDARD PLATE) was “active; positive”, the mutagenic call (Test System: E. coli, Strain/Indicator: WP2 uvrA/pKM101, Metabolic Activation: None, Method: Preincubation) was “inactive; negative” and the mutagenic call (Test System: E. coli, Strain/Indicator: WP2 uvrA/pKM101, Metabolic Activation: Rat, Liver, S-9, Aroclor 1254 (10%), Method: Preincubation) was “inactive; negative”.
